Laboratory results from patent US11148990B2 (JOST CHEMICAL CO., priority 2019, dated 2021).

Assays:
Type in all cases: physicochemical
[1] = Compressibility: tablets on instrumented Carver press, no excipients, three-point bend stress; conditions: current experimental conditions
Protocol: Compressibility of a second sample of magnesium citrate glycinate was evaluated using an instrumented Carver press. Approximately 1.6 g, 5 mm thick tablets were compressed using the 0.4″×0.9″ rectangular tooling. No excipients were used. The sides of the tooling were slightly dusted with magnesium stearate in order to facilitate tablet ejection and eliminate sticking. The tablets were subjected to a three-point bend stress using a TA.XT2-Plus texture analyzer (from Stable Micro Systems of Surrey, England). Flexural strength and young modulus of the compact were measured. In addition, compact density was calculated from the weight and size measurements of the tablets.
An attempt was made to compare compressibility of magnesium citrate glycinate with those of individual salts, magnesium citrate tribasic and magnesium bis-glycinate.

[2] = Apparent density measurement
Protocol: In addition, particle size distribution and apparent density of di-magnesium citrate glycinate co-salt were measured.

[3] = Aqueous stability of 10% w/w solution standing for 24 hours, visual inspection; conditions: 10% w/w solution in water

Compound | Compressibility, tablet formation [1] | Apparent density [2] [kg/m^3] | Aqueous stability, change of clear and colorless solution [3]
NCC(=O)[O-].NCC(=O)[O-].[Mg+2] [magnesium bis-glycinate] | no cohesive tablets were obtained | – | –
NCC(=O)[O-].O=C([O-])CC(O)(CC(=O)[O-])C(=O)[O-].[Mg+2].[Mg+2] [magnesium citrate glycinate co-salt] | – | 1740 | no change
O=C([O-])CC(O)(CC(=O)[O-])C(=O)[O-].O=C([O-])CC(O)(CC(=O)[O-])C(=O)[O-].[Mg+2].[Mg+2].[Mg+2] [magnesium citrate tribasic] | no cohesive tablets were obtained | – | –
